Laboratory results reported in patent US12310975B2, “Modulators of BCL6 proteolysis and associated methods of use” (Arvinas Operations, Inc., priority 2019, dated 2025).

target: BCL6 (Homo sapiens (Human), UniProt P41182); test: Immunofluorescence high content imaging of BCL6 degradation in T47D cells; assay type: cell-based; settings: not given
Description: Immunofluorescence Protocol for High Cotent Imaging of BCL6
T47D cells were seeded in 100 μl volume of RPMI1640-10% FBS in a 96-well black/clear bottom plates for adherent lines (Corning #3904).
Day 1. T47D breast cancer epithelial cells were seeded at a density so that confluence is ˜70-90% at endpoint. Cells were seeded at 7K/0.1 ml/well the morning prior to the addition of exemplary bifunctional degradation compounds.
Day 2. Prepare an 11 point 3-fold serial dilution of exemplary bifunctional compound in DMSO and aliquot an appropriate volume to cell growth media to generate a 2× final concentration of exemplary bifunctional compound. Add an equal volume (0.1 ml) of 2× exemplary bifunctional compound/media mix to previously plated cells, for a final top concentration in aqueous cell growth media of 0.1 or 1 μM. Incubate for 3 days at 37° C., 5% CO2.
Day 5 Immunofluorescence. Discard cell media. Wash wells with 200 μl of room temperature phosphate-buffered saline (PBS). Prepared 4% paraformaldehyde (PFA) from 16% PFA (Electron Microscopy Sciences #15710) using 1×PBS. Fifty μl of 4% PF was added to each well and incubate for 15 minutes at room temperature to fix the cells. The PFA was aspirated and the cells washed twice with PBS (200 μl)).
Prepared 0.1% Triton X-100 in PBS using 10% triton X-100 stock. The cells were permeabilized by adding 100 ul of the 0.1% Triton X-100 in PBS to each well to permeabilize cells and incubating at room temperature for 15 minutes. Cells were washed twice with PBS.
Prepared 3% BSA/PBS (from Thermofisher #37515 Blocker BSA in TBS, 10%), and 100 ul was added to each well. The cells were incubated for at least 1 hour at room temperature.
Prepared 1% BSA/PBS using Blocker BSA/PBS, and the 3% BSA/PBS removed from the wells.
For no primary antibody controls, 50 μl 1% BSA/PBS was added.
Primary antibody (BCL6 Rb Ab, CST-14895, Cell Signaling) was diluted 1:300 in 1% BSA/PBS using Blocker BSA/PBS.
Fifty μl of primary antibody added to all remaining wells (i.e., all wells other than the primary antibody controls) and the cells were incubated overnight at 4° C. with slow orbital movement.
Day 6. Contents of the wells was removed and the cells washed four times with 200 ul PBS. 1% BSA/PBS was prepared using Blocker BSA in PBS.
Diluted secondary antibody goat anti-Rb IgG Alexa-488 1:1000, and cell mask-Alexa-647 1:3000 in 1% BSA/PBS in the same mix. Add 50 μl to each well and incubate at room temperature for 1 hour in the dark.
Cells were washed three times with 200 ul PBS, and then incubated for 10 minutes with 100 ul Hoechst dye at 1 μg/mL (20 mM stock) to stain cell nuclei. Wells were then washed with 200 μl PBS, and 100 ul of PBS was added to each well and the plate covered plate with a plastic opaque cover. Plates were stored at 4° C. and covered in aluminum foil until imaged.
Plates were equilibrated to room temperature prior to reading. The bottom of the plate was wiped with 70% isopropanol immediately prior to imaging.
10×, 4 fields/well, include Top hat smoothing in the analysis protocol.

IC50 [nM] | Structure (SMILES)
10 to 50 | CNC(=O)COc1cc2cc(Nc3nc(N4CCN(CC5CCN(c6ccc7c(c6)C(=O)N(C6CCC(=O)NC6=O)C7=O)CC5)CC4)ncc3Cl)ccc2n(C(C)C)c1=O (stereo not shown) [Exemplary Compound 263, 2-[[6-([5-chloro-2-[4-([1-[2-(2,6-dioxopiperidin-3-yl)-1,3-dioxoisoindol-5-yl]piperidin-4-yl]methyl)piperazin-1-yl]pyrimidin-4-yl]amino)-1-isopropyl-2-oxoquinolin-3-yl]oxy]-N-methylacetamide]

same assay, conditions: T47D

Dmax [%] | Structure (SMILES)
50 to 70 | CNC(=O)COc1cc2cc(Nc3nc(N4CCN(CC5CCN(c6ccc7c(c6)C(=O)N(C6CCC(=O)NC6=O)C7=O)CC5)CC4)ncc3Cl)ccc2n(C(C)C)c1=O (stereo not shown) [Exemplary Compound 263, 2-[[6-([5-chloro-2-[4-([1-[2-(2,6-dioxopiperidin-3-yl)-1,3-dioxoisoindol-5-yl]piperidin-4-yl]methyl)piperazin-1-yl]pyrimidin-4-yl]amino)-1-isopropyl-2-oxoquinolin-3-yl]oxy]-N-methylacetamide]

same assay, conditions: T47D cells

Dmax [%] | IC50 [nM] | Structure (SMILES)
50 to 70 | 10 to 50 | CNC(=O)COc1cc2cc(Nc3nc(N4CCC(CN5[C@H](C)CN(c6cccc(C(=O)NC7CCC(=O)NC7=O)c6F)C[C@@H]5C)CC4)ncc3Cl)ccc2n(C)c1=O (mixture of isomers) [compound 370, rac-3-[(3R,5S)-4-({1-[5-chloro-4-({1-methyl-3-[(methylcarbamoyl)methoxy]-2-oxo-1,2-dihydroquinolin-6-yl}amino)pyrimidin-2-yl]piperidin-4-yl}methyl)-3,5-dimethylpiperazin-1-yl]-N-(2,6-dioxopiperidin-3-yl)-2-fluorobenzamide]
50 to 70 | < 10 | CNC(=O)COc1cc2cc(Nc3nc(N4CCC(CN5[C@H](C)CN(c6cccc7c6C(=O)N(C6CCC(=O)NC6=O)C7=O)C[C@@H]5C)CC4)ncc3Cl)ccc2n(C(C)C)c1=O (mixture of isomers) [compound 381, rac-2-[(6-{[5-chloro-2-(4-{[(2R,6S)-4-[2-(2,6-dioxopiperidin-3-yl)-1,3-dioxo-2,3-dihydro-1H-isoindol-4-yl]-2,6-dimethylpiperazin-1-yl]methyl}piperidin-1-yl)pyrimidin-4-yl]amino}-2-oxo-1-(propan-2-yl)-1,2-dihydroquinolin-3-yl)oxy]-N-methylacetamide]

same assay, conditions: class symbols A-D, read-out: EC50 (nM)*

DC50 [nM] | Structure (SMILES)
> 100 | CNC(=O)COc1cc2cc(Nc3nc(N4CCC(OCCOCCOCCOc5cc(-c6scnc6C)ccc5CNC(=O)[C@@H]5C[C@@H](O)CN5C(=O)[C@H](c5cc(C)no5)C(C)C)CC4)ncc3Cl)ccc2n(C)c1=O [compound 49, (2S,4R)-N-(2-(2-(2-(2-((1-(5-chloro-4-((1-methyl-3-(2-(methylamino)-2-oxoethoxy)-2-oxo-1,2-dihydroquinolin-6-yl)amino)pyrimidin-2-yl)piperidin-4-yl)oxy)ethoxy)ethoxy)ethoxy)-4-(4-methylthiazol-5-yl)benzyl)-4-hydroxy-1-((S)-3-methyl-2-(3-methylisoxazol-5-yl)butanoyl)pyrrolidine-2-carboxamide]
> 100 | CNC(=O)COc1cc2cc(Nc3nc(N4CCC(OCCOCCOc5cc(-c6scnc6C)ccc5CNC(=O)[C@@H]5C[C@@H](O)CN5C(=O)C(c5cc(C)no5)C(C)C)CC4)ncc3Cl)ccc2n(C)c1=O (stereo partly drawn) [compound 53, (2S,4R)-N-(2-(2-(2-((1-(5-chloro-4-((1-methyl-3-(2-(methylamino)-2-oxoethoxy)-2-oxo-1,2-dihydroquinolin-6-yl)amino)pyrimidin-2-yl)piperidin-4-yl)oxy)ethoxy)ethoxy)-4-(4-methylthiazol-5-yl)benzyl)-4-hydroxy-1-(3-methyl-2-(3-methylisoxazol-5-yl)butanoyl)pyrrolidine-2-carboxamide]
> 100 | CNC(=O)COc1cc2cc(Nc3nc(N4CCC(OCCOCCOCCOCCOc5cc(-c6scnc6C)ccc5CNC(=O)[C@@H]5C[C@@H](O)CN5C(=O)C(c5cc(C)no5)C(C)C)CC4)ncc3Cl)ccc2n(C)c1=O (stereo partly drawn) [compound 54, (2S,4R)-N-(2-(2-(2-(2-(2-((1-(5-chloro-4-((1-methyl-3-(2-(methylamino)-2-oxoethoxy)-2-oxo-1,2-dihydroquinolin-6-yl)amino)pyrimidin-2-yl)piperidin-4-yl)oxy)ethoxy)ethoxy)ethoxy)ethoxy)-4-(4-methylthiazol-5-yl)benzyl)-4-hydroxy-1-(3-methyl-2-(3-methylisoxazol-5-yl)butanoyl)pyrrolidine-2-carboxamide]
> 100 | CNC(=O)COc1cc2cc(Nc3nc(N4CCC(OCCOCCOCCOCCOCCOc5cc(-c6scnc6C)ccc5CNC(=O)[C@@H]5C[C@@H](O)CN5C(=O)C(c5cc(C)no5)C(C)C)CC4)ncc3Cl)ccc2n(C)c1=O (stereo partly shown) [compound 55]

Continued, compound first:

Structure (SMILES) | DC50 [nM]
CNC(=O)COc1cc2cc(Nc3nc(N4CCC(OCCOCCOCCOc5cc(-c6scnc6C)ccc5CNC(=O)[C@@H]5C[C@@H](O)CN5C(=O)[C@@H](c5cc(C)no5)C(C)C)CC4)ncc3Cl)ccc2n(C)c1=O [compound 50, (2S,4R)-N-(2-(2-(2-(2-((1-(5-chloro-4-((1-methyl-3-(2-(methylamino)-2-oxoethoxy)-2-oxo-1,2-dihydroquinolin-6-yl)amino)pyrimidin-2-yl)piperidin-4-yl)oxy)ethoxy)ethoxy)ethoxy)-4-(4-methylthiazol-5-yl)benzyl)-4-hydroxy-1-((R)-3-methyl-2-(3-methylisoxazol-5-yl)butanoyl)pyrrolidine-2-carboxamide] | > 100
CNC(=O)COc1cc2cc(Nc3nc(N4CCC(OCCOCCOCCOCC(=O)N[C@H](C(=O)N5C[C@H](O)C[C@H]5C(=O)NCc5ccc(-c6scnc6C)cc5)C(C)(C)C)CC4)ncc3Cl)ccc2n(C)c1=O [compound 51, (2S,4R)-1-((S)-2-(tert-butyl)-14-((1-(5-chloro-4-((1-methyl-3-(2-(methylamino)-2-oxoethoxy)-2-oxo-1,2-dihydroquinolin-6-yl)amino)pyrimidin-2-yl)piperidin-4-yl)oxy)-4-oxo-6,9,12-trioxa-3-azatetradecanoyl)-4-hydroxy-N-(4-(4-methylthiazol-5-yl)benzyl)pyrrolidine-2-carboxamide] | > 100
CNC(=O)COc1cc2cc(Nc3nc(N4CCC(OCCOCCOCCOc5ccc6c(c5)C(=O)N(C5CCC(=O)NC5=O)C6=O)CC4)ncc3Cl)ccc2n(C)c1=O (stereo not shown) [compound 52, 2-((6-((5-chloro-2-(4-(2-(2-(2-((2-(2,6-dioxopiperidin-3-yl)-1,3-dioxoisoindolin-5-yl)oxy)ethoxy)ethoxy)ethoxy)piperidin-1-yl)pyrimidin-4-yl)amino)-1-methyl-2-oxo-1,2-dihydroquinolin-3-yl)oxy)-N-methylacetamide] | 50 to 100
CNC(=O)COc1cc2cc(Nc3nc(N4CCC(OCCOc5cc(-c6scnc6C)ccc5CNC(=O)[C@@H]5C[C@@H](O)CN5C(=O)C(c5cc(C)no5)C(C)C)CC4)ncc3Cl)ccc2n(C)c1=O (stereo partly drawn) [compound 56, (2S,4R)—N-(2-(2-((1-(5-chloro-4-((1-methyl-3-(2-(methylamino)-2-oxoethoxy)-2-oxo-1,2-dihydroquinolin-6-yl)amino)pyrimidin-2-yl)piperidin-4-yl)oxy)ethoxy)-4-(4-methylthiazol-5-yl)benzyl)-4-hydroxy-1-(3-methyl-2-(3-methylisoxazol-5-yl)butanoyl)pyrrolidine-2-carboxamide] | > 100
CNC(=O)COc1cc2cc(Nc3nc(N4CCC(OCCOCCOCCNc5cccc6c5C(=O)N(C5CCC(=O)NC5=O)C6=O)CC4)ncc3Cl)ccc2n(C)c1=O (stereo not shown) [compound 57, 2-((6-((5-chloro-2-(4-(2-(2-(2-((2-(2,6-dioxopiperidin-3-yl)-1,3-dioxoisoindolin-4-yl)amino)ethoxy)ethoxy)ethoxy)piperidin-1-yl)pyrimidin-4-yl)amino)-1-methyl-2-oxo-1,2-dihydroquinolin-3-yl)oxy)-N-methylacetamide] | > 100
CNC(=O)COc1cc2cc(Nc3nc(N4CCC(OCCOCCOCCOCCOCCOCCOc5cc(-c6scnc6C)ccc5CNC(=O)[C@@H]5C[C@@H](O)CN5C(=O)C(c5cc(C)no5)C(C)C)CC4)ncc3Cl)ccc2n(C)c1=O (stereo partly drawn) [compound 58, (2S,4R)-N-(2-((17-((1-(5-chloro-4-((1-methyl-3-(2-(methylamino)-2-oxoethoxy)-2-oxo-1,2-dihydroquinolin-6-yl)amino)pyrimidin-2-yl)piperidin-4-yl)oxy)-3,6,9,12,15-pentaoxaheptadecyl)oxy)-4-(4-methylthiazol-5-yl)benzyl)-4-hydroxy-1-(3-methyl-2-(3-methylisoxazol-5-yl)butanoyl)pyrrolidine-2-carboxamide] | > 100
